Source: patent publication US8962057B2, “Methods for improving taste and oral care compositions with improved taste” (The Procter & Gamble Company, priority 2009, dated 2015)
Read-outs that look alike come from different tables or passages of the source. One block for each compound: values may come before it.

What was measured:
TRPV1 [1] = molecular target: T1, TRPV1 (Homo sapiens, UniProt Q8NER1); experiment: TRPV1 enhancement, enhancer added after TRPV1 activator capsaicin; assay type: cell-based
T1 construct: expressed in transfected cells
Protocol: In order to determine whether TRPV1 is activated, the intracellular calcium ion (Ca^+2) levels in TRPV1 receptors is measured. […] (human embryonic kidney) cells stably transfected with human TRPV1 are grown in 15 ml growth medium [high glucose DMEM (Dulbecco's Modification of Eagle's Medium) supplemented with 10% FBS (fetal bovine serum), 100 μg/ml Penicillin/streptomycin, 100 μg/ml G418] in a 75 Cm^2 flask for 3 days at 33° C. in a mammalian cell culture incubator set at 5% CO2. Cells are detached with addition of 10 ml of PBS (phosphate buffered saline) by hand shaking gently. Cells are transferred to a 50 ml tube and centrifuged at 850 rpm for 3 minutes to remove PBS. After centrifugation, a pellet of cells is formed in the bottom of the tube separating them from the supernatant solution. […] Fluo-4 is a fluorescent dye used for quantifying cellular Ca^2+ concentrations in the 100 nM to 1 microM range. At the end of the 30 minutes, 45 ml of assay buffer [1×HBSS (Hank's Balanced Salt Solution), 20 mM HEPES (4-(2-Hydroxyethyl)-1-piperazineethanesulfonic acid)] is added to wash cells and the resulting combination is then centrifuged at 850 rpm for 3 minutes to remove excess buffer and Fluo-4 AM calcium indicator.
[…] […] For determining the direct effect of test compounds on TRPV1, fluorescence is measured immediately after addition of each compound.

[2] = Burning sensation on the standard Scoville hotness scale
TRPV1 [3] = molecular target: T1, TRPV1; experiment: TRPV1 enhancement, TRPV1 activator VBE and enhancer added together; assay type: cell-based; conditions: VBE 3.5 microMolar
Protocol: In order to determine whether TRPV1 is activated, the intracellular calcium ion (Ca^+2) levels in TRPV1 receptors is measured. […] (human embryonic kidney) cells stably transfected with human TRPV1 are grown in 15 ml growth medium [high glucose DMEM (Dulbecco's Modification of Eagle's Medium) supplemented with 10% FBS (fetal bovine serum), 100 μg/ml Penicillin/streptomycin, 100 μg/ml G418] in a 75 Cm^2 flask for 3 days at 33° C. in a mammalian cell culture incubator set at 5% CO2. Cells are detached with addition of 10 ml of PBS (phosphate buffered saline) by hand shaking gently. Cells are transferred to a 50 ml tube and centrifuged at 850 rpm for 3 minutes to remove PBS. After centrifugation, a pellet of cells is formed in the bottom of the tube separating them from the supernatant solution. The supernatant is discarded and the cell pellet is suspended in 1 ml of fresh growth medium to which 5 μl (12.5 μg) of Fluo-4 AM (Molecular Probes, Inc.) calcium indicator is added and incubated for 30 min with gentle shaking. Fluo-4 is a fluorescent dye used for quantifying cellular Ca^2+ concentrations in the 100 nM to 1 microM range. At the end of the 30 minutes, 45 ml of assay buffer [1×HBSS (Hank's Balanced Salt Solution), 20 mM HEPES (4-(2-Hydroxyethyl)-1-piperazineethanesulfonic acid)] is added to wash cells and the resulting combination is then centrifuged at 850 rpm for 3 minutes to remove excess buffer and Fluo-4 AM calcium indicator.
The pellet cells are re-suspended in 10 ml assay buffer and 90 μl aliquots (˜50,000 cells) per well delivered to a 96-well assay plate containing 10 μl of test compounds (1 mM in assay buffer, final concentration 100 μM) or buffer control and incubated at room temperature for 30 minutes. After 30 minutes, the plate is placed into a fluorometric imaging plate reader (FLIPR^384 from Molecular Devices) and basal fluorescence recorded (excitation wave length 488 nm and emission wave length 510 nm). The FLIPR assay is an accepted method for detecting changes in intracellular calcium concentration. Then 20 μl of the molecule being tested as a TRPV1 activator is added and fluorescence recorded. For determining the direct effect of test compounds on TRPV1, fluorescence is measured immediately after addition of each compound. Additional discussion of the FLIPR method can be found in Smart et al., Characterization using FLIPR of human vanilloid VR1 receptor pharmacology, European Journal of Pharmacology 417, 51-58 (2001) and Liu et al., Development and validation of a platelet calcium flux assay using a fluorescent imaging plate reader, Analytical Biochemistry 357, 216-224 (2006).
In a separate test, the TRPV1 activator (VBE) and the enhancer are added together. […] See the chart below.

TRPV1 [4] = molecular target: T1, TRPV1; experiment: FLIPR calcium flux assay for TRPV1 activation in transfected HEK cells; assay type: cell-based
Protocol: The term “TRPV1 activator” as used herein refers to any component which at a concentration of 1 mM gives a calcium flux count of at least 1000 counts above the background level of calcium present in the cell according to the FLIPR method as discussed herein. The term “count” is defined as the change in fluorescence of the transfected cell lines due to the influx of calcium across the cell membrane, which reacts with the calcium sensitive dye present within the cells.
In order to determine whether TRPV1 is activated, the intracellular calcium ion (Ca^+2) levels in TRPV1 receptors is measured. […] (human embryonic kidney) cells stably transfected with human TRPV1 are grown in 15 ml growth medium [high glucose DMEM (Dulbecco's Modification of Eagle's Medium) supplemented with 10% FBS (fetal bovine serum), 100 μg/ml Penicillin/streptomycin, 100 μg/ml G418] in a 75 Cm^2 flask for 3 days at 33° C. in a mammalian cell culture incubator set at 5% CO2. Cells are detached with addition of 10 ml of PBS (phosphate buffered saline) by hand shaking gently. Cells are transferred to a 50 ml tube and centrifuged at 850 rpm for 3 minutes to remove PBS. […] Fluo-4 is a fluorescent dye used for quantifying cellular Ca^2+ concentrations in the 100 nM to 1 microM range. […]
The pellet cells are re-suspended in 10 ml assay buffer and 90 μl aliquots (˜50,000 cells) per well delivered to a 96-well assay plate containing 10 μl of test compounds (1 mM in assay buffer, final concentration 100 μM) or buffer control and incubated at room temperature for 30 minutes. After 30 minutes, the plate is placed into a fluorometric imaging plate reader (FLIPR^384 from Molecular Devices) and basal fluorescence recorded (excitation wave length 488 nm and emission wave length 510 nm). […] Then 20 μl of the molecule being tested as a TRPV1 activator is added and fluorescence recorded. For determining the direct effect of test compounds on TRPV1, fluorescence is measured immediately after addition of each compound. […]

[5] = Consumer Test I: panelists brush with dentifrice and rate bothersome and bad aftertaste; assay type: in vivo, human; conditions: in dentifrice
Protocol: In order to show the effect of the addition of a TRPV1 activator and/or Vanitrope on the perception of taste in an oral care composition, the following compositions are made and given to consumers to sample.
The base of the control dentifrice (i.e. everything but the flavor) is made via vacuum mixing. The flavor is added in a second step my speed mixing to complete the control. The additional compositions are then made by speed mixing into the control base the TRPV1 activator and/or vanitrope plus flavor at the stated levels. The samples are then placed in tubes and delivered to the testing facility.
At the testing facility, panelists are provided with a generic brush with 1.0 g of toothpaste. Each panelist has an individual sink, mirror, disposable cup and paper towels. They are asked to brush as they normally would at home. Before and after brushing the panelist will answer a series of questions relating to their experience with the toothpaste. The panelists are asked to comment on their experience right after brushing and then at each hour interval for three hours. The comments from the consumers are translated into numerical values for comparison. The results for the above compositions as it related to bothersome and bad aftertaste are shown below.
Also included in the above testing are combinations of TRPV1 activators and/or vanitrope. The formulations for these tests are below and the control is the same as that listed above.

[6] = both bothersome and bad aftertaste, each of hours 1-3

T1 sequence (Q8NER1 whole entry): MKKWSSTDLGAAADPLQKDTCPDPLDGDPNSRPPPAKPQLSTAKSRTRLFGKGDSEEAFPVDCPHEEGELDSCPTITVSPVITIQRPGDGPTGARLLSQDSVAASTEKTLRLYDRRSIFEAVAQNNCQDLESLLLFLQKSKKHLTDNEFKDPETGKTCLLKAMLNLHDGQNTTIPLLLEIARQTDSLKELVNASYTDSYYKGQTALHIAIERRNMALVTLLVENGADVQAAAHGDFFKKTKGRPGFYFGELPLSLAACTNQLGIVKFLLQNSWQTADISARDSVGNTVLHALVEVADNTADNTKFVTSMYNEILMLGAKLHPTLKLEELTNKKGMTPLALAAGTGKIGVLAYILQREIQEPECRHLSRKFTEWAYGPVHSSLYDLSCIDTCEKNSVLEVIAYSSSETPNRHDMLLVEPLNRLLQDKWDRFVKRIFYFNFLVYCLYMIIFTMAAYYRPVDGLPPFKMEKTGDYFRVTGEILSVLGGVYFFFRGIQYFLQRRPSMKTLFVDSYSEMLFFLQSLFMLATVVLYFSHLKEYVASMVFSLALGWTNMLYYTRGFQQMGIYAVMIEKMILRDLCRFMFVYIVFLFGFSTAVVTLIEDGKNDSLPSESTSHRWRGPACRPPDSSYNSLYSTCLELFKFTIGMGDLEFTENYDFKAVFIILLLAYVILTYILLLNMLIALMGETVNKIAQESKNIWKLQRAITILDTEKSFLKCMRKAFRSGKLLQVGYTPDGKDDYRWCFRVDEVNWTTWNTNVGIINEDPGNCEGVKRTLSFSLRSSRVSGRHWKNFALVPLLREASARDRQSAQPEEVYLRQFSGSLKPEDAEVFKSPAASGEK

% Enhancement (TRPV1 [1]): 17.5%
Compound: CC(C)=CCCC(C)C=O (centres unmarked) [2,6-Dimethyl-5-Heptenal]

Percent Enhancement when combined with 3.5 microMolar VBE (TRPV1 [3]; enhancer level 50 microMolar): 300%
Percent Enhancement when combined with 3.5 microMolar VBE (TRPV1 [3]; enhancer level 100 microMolar): 310%
Percent Enhancement when combined with 3.5 microMolar VBE (TRPV1 [3]; enhancer level 200 microMolar): 410%
Percent Enhancement when combined with 3.5 microMolar VBE (TRPV1 [3]; enhancer level 1000 microMolar): 420%
% Enhancement (TRPV1 [1]): 14.64%
Compound: CC(=O)OC(C)(C)Cc1ccccc1 [Alpha, Alpha Dimethylphenethyl Acetate]

activation level (calcium flux) (TRPV1 [4]; concentration of 300 nM): about 14127.16 calcium ions
Compound: COc1cc(CNC(=O)CCCC/C=C/C(C)C)ccc1O [Capsaicin, reference compound]
'Hotness' (as log Scoville Units) ([2]; burning sensation): 7.2 log Scoville Units

% Enhancement (TRPV1 [1]): 23.46%
Compound: CCCC(=O)OC/C=C(\C)CCC=C(C)C [Geranyl Butyrate]

% Enhancement (TRPV1 [1]): 10.16%
Compound: CCCCCCCO [Heptyl Alcohol]

% Enhancement (TRPV1 [1]): 13.74%
Compound: C=C(OCC)C1C(C)(C)CC(=O)CC1(C)C [Kephalis]

% Enhancement (TRPV1 [1]): 14.07%
Compound: COC(Cc1ccccc1)OC [Phenylacetaldehyde Dimethyl Acetal]

% Enhancement (TRPV1 [1]): 12.83%
Compound: C=C(C)C1CC=C(C)C(OC(C)=O)C1 (centres unmarked) [carvyl acetate]

% Enhancement (TRPV1 [1]): 28.53%
Compound: C/C=C/C(=O)C1C(C)C=CCC1(C)C (centres unmarked) [delta-damascone]

Percent Enhancement when combined with 3.5 microMolar VBE (TRPV1 [3]; enhancer level 50 microMolar): 25%
Percent Enhancement when combined with 3.5 microMolar VBE (TRPV1 [3]; enhancer level 100 microMolar): 100%
Percent Enhancement when combined with 3.5 microMolar VBE (TRPV1 [3]; enhancer level 200 microMolar): 175%
Percent Enhancement when combined with 3.5 microMolar VBE (TRPV1 [3]; enhancer level 1000 microMolar): 400%
% Enhancement (TRPV1 [1]): 12.33%
Compound: Farnesene

Further lines, the compound ahead of its results:

Compound: CCCCCCC(C)=O [2-Octanone]
% Enhancement (TRPV1 [1]): 19.87%

Compound: CCCCC[C@H](O)CC(=O)CCc1ccc(O)c(OC)c1 [6-Gingerol]
'Hotness' (as log Scoville Units) ([2]; burning sensation): 4.9 log Scoville Units

Compound: CCCCC/C=C/C(=O)CCc1ccc(O)c(OC)c1 [6-Shoagol]
'Hotness' (as log Scoville Units) ([2]; burning sensation): 5.1 log Scoville Units

Compound: C=CCS[S+]([O-])CC=C (centres unmarked) [Allicin]
'Hotness' (as log Scoville Units) ([2]; burning sensation): 4.0 log Scoville Units

Compound: C/C=C\C(=O)C1C(C)=CCCC1(C)C (stereo not drawn) [Alpha-Damascone]
% Enhancement (TRPV1 [1]): 28.1%

Compound: CC(=O)/C=C/C1C(C)=CCCC1(C)C (stereo not drawn) [Alpha-Ionone]
% Enhancement (TRPV1 [1]): 18.84%

Compound: O=Cc1ccco1 [Furfural]
% Enhancement (TRPV1 [1]): 19.29%

Compound: COc1cc(CNC(=O)CCCCC/C=C/C(C)C)ccc1O [HomoCapsaicin]
'Hotness' (as log Scoville Units) [2]: 6.9 log Scoville Units

Compound: COc1cc(CNC(=O)CCCCCCCC(C)C)ccc1O [HomodihydroCapsaicin]
'Hotness' (as log Scoville Units) [2]: 6.9 log Scoville Units

Compound: COc1cc(CNC(=O)CCCCCC(C)C)ccc1O [NorhydroCapsaicin]
'Hotness' (as log Scoville Units) [2]: 7.0 log Scoville Units

Compound: O=P([O-])([O-])OP(=O)([O-])[O-].[Na+].[Na+].[Na+].[Na+] [Tetrasodium Pyrophosphate]
% Enhancement (TRPV1 [1]): 15.62%

Compound: CCC/C=C/COC(C)=O [Trans-2-Hexenyl Acetate]
% Enhancement (TRPV1 [1]): 10.62%

Compound: CCCCOCc1ccc(O)c(OC)c1 [Vanillyl Butyl Ether]
taste versus control [5, 6]: improved taste over the control
'Hotness' (as log Scoville Units) ([2]; burning sensation): 5.7 log Scoville Units
activation level (calcium flux) (TRPV1 [4]; concentration of 1 mM): approximately 14942.84 calcium ions

Compound: COc1cc(CCC(C)=O)ccc1O [Zingerone]
taste versus control [5, 6]: improved taste over the control
'Hotness' (as log Scoville Units) ([2]; burning sensation): <4.0 log Scoville Units

Compound: C/C=C/c1ccc(OCC)c(O)c1 [vanitrope]
taste versus control ([5]; hours 1-3 for bothersome and hours 1-2 for bad aftertaste): taste improvement
direct activation of TRPV1 (TRPV1 activator or not) (TRPV1 [4]): not considered to be a TRPV1 activator
